Source: patent publication US20240025922A1, “TETRAHYDROPYRIDO[3,4-d]PYRIMIDINES AS HPK1 INHIBITORS” (Merck Patent GmbH, priority 2022, published 2024)
Where two headings read alike, the source gives them in different places.

Experiments:
[1] = target: full-length human HPK1 (MAP4K1) (Homo sapiens (Human), UniProt Q92918); experiment: HPK1 Kinase Assay (Biochemical Assay), ADP-Glo; conditions: GST-HPK1 3.2 nM, 10 μM ATP, MBP substrate, read-out: HPK1 enzymatic IC50
Method in brief: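 GST-tagged full-length human HPK1 was expressed in Sf21 cells and used at 3.2 nM in 50 mM HEPES pH 7.5, 10 mM MgCl2, 2 mM DTT, 12.5 mM O-glycerophosphate, 0.01% BSA and 0.02% Brij-35. It was preincubated 15 min with 10-point compound dilutions, and the reaction was started with a start mix of 10 μM ATP and 3.235 μM MBP. After 120 min, ADP was measured by ADP-Glo luminescence and IC50 derived.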

[2] = target: HPK1 (SLP76 phosphorylation at Ser376 in Jurkat and EL-4 cells) (Homo sapiens, UniProt Q92918); type: cell-based
Chain of HPK1 (SLP76 phosphorylation at Ser376 in Jurkat and EL-4 cells) (Q92918 whole entry, looked up): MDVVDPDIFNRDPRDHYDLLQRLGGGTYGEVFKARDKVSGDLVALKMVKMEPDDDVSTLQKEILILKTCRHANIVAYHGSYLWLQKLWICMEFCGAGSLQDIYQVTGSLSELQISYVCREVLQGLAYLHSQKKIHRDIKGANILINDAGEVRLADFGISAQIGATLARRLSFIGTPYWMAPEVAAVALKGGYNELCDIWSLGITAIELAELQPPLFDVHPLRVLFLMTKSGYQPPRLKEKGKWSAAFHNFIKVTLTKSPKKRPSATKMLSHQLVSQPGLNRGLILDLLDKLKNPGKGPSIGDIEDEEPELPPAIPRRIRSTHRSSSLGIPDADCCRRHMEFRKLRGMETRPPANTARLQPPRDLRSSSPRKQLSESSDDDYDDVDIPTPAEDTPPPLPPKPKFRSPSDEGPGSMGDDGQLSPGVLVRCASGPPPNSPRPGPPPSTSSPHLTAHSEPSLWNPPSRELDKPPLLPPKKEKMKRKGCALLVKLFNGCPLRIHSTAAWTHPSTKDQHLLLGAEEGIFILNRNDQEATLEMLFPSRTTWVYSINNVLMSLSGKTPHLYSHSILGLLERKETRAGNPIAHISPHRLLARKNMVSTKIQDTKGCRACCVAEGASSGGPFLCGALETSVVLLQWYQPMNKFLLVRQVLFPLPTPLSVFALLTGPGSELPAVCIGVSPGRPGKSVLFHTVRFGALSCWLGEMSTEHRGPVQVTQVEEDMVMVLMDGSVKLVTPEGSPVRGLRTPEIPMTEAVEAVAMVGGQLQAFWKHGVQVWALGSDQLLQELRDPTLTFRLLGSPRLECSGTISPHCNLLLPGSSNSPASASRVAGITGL
Method in brief: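 Jurkat (human) and EL-4 (mouse) cells, endogenous HPK1/SLP76, preincubated 60 min with compounds (10-point dilution), then stimulated with αCD3/αCD28 beads at 37 °C: 15 min for Jurkat, 30 min for EL-4. Ser376 pSLP76 in lysates read by AlphaLISA (Jurkat) or HTRF (EL-4); % inhibition and IC50 fitted.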

[3] = αCD3/αCD28 Dynabeads stimulated cells, pSLP76 (Ser376) detection; read-out: HPK1 pSLP76 IC50
[4] = read-out: HPK1 pSLP76 IC50; αCD3/αCD28 Dynabeads stimulated cells, pSLP76 (Ser376) detection

Chain of full-length human HPK1 (MAP4K1) (Q92918 whole entry): as the sequence (Q92918 whole entry, looked up) above

Row | IC50 [1] | IC50 [2, 3] | SMILES | IC50 [2, 4]
1 | < 100 nM | 500 to 1000 nM | Cc1c(N2CCc3cnc(Nc4ccc(CS(C)(=O)=O)nc4)cc3C2)cnc2c1NCCO2 [Example 51, 6-(8-methyl-2,3-dihydro-1H-pyrido[2,3-b][1,4]oxazin-7-yl)-N-(6-((methylsulfonyl)methyl)pyridin-3-yl)-5,6,7,8-tetrahydro-2,6-naphthyridin-3-amine] | –
2 | < 100 nM | > 1000 nM | Cc1c(N2CCc3cnc(Nc4ccc(NC(=O)CN(C)C)nc4)cc3C2)cnc2c1NCCO2 [Example 31, 2-(dimethylamino)-N-{5-[(6-{8-methyl-1H,2H,3H-pyrido[2,3-b][1,4]oxazin-7-yl}-5,6,7,8-tetrahydro-2,6-naphthyridin-3-yl)amino]pyridin-2-yl}acetamide] | –
3 | < 100 nM | < 500 nM | Cc1c(N2CCc3cnc(Nc4ccc5c(c4)CNC5(C)C)nc3C2)cnc2c1NCCO2 [Example 13, 1,1-dimethyl-N-(7-{8-methyl-1H,2H,3H-pyrido[2,3-b][1,4]oxazin-7-yl}-5H,6H,7H,8H-pyrido[3,4-d]pyrimidin-2-yl)-2,3-dihydro-1H-isoindol-5-amine] | –
4 | < 100 nM | < 500 nM | Cc1c(N2CCc3cnc(Nc4ccc(CS(C)(=O)=O)nc4)nc3C2)cnc2c1NCCO2 [Example 58, 6-(methanesulfonylmethyl)-N-(7-{8-methyl-1H,2H,3H-pyrido[2,3-b][1,4]oxazin-7-yl}-5H,6H,7H,8H-pyrido[3,4-d]pyrimidin-2-yl)pyridin-3-amine] | –
5 | < 100 nM | < 500 nM | Cc1cc(Nc2ncc3c(n2)CN(c2cnc4c(c2C)NCCO4)CC3)ccc1NC(=O)CN1CCC1 [Example 3, 2-(azetidin-1-yl)-N-{2-methyl-4-[(7-{8-methyl-1H,2H,3H-pyrido[2,3-b][1,4]oxazin-7-yl}-5H,6H,7H,8H-pyrido[3,4-d]pyrimidin-2-yl)amino]phenyl}acetamide] | –
6 | < 100 nM | < 500 nM | Cc1c(N2CCc3cnc(Nc4ccc(NCCN5CCOCC5)c(F)c4)cc3C2)cnc2c1NCCO2 [Example 4, 2-fluoro-N4-(6-{8-methyl-1H,2H,3H-pyrido[2,3-b][1,4]oxazin-7-yl}-5,6,7,8-tetrahydro-2,6-naphthyridin-3-yl)-N1-[2-(morpholin-4-yl)ethyl]benzene-1,4-diamine] | –
7 | < 100 nM | > 1000 nM | Cc1c(N2CCc3cnc(Nc4ccc(C(C)(C)S(C)(=O)=O)nc4)nc3C2)cnc2c1NCCO2 [Example 20, 6-(2-methanesulfonylpropan-2-yl)-N-(7-{8-methyl-1H,2H,3H-pyrido[2,3-b][1,4]oxazin-7-yl}-5H,6H,7H,8H-pyrido[3,4-d]pyrimidin-2-yl)pyridin-3-amine] | –
8 | < 100 nM | < 500 nM | Cc1c(N2CCc3cnc(Nc4cccc(S(C)(=O)=O)c4)nc3C2)cnc2c1NCCO2 [Example 79, 7-(8-methyl-2,3-dihydro-1H-pyrido[2,3-b][1,4]oxazin-7-yl)-N-(3-(methylsulfonyl)phenyl)-5,6,7,8-tetrahydropyrido[3,4-d]pyrimidin-2-amine] | –
9 | < 100 nM | 500 to 1000 nM | Cc1c(N2CCc3cnc(Nc4ccnc(C(C)(C)O)c4)nc3C2)cnc2c1NCCO2 [Example 67, 2-{4-[(7-{8-methyl-1H,2H,3H-pyrido[2,3-b][1,4]oxazin-7-yl}-5H,6H,7H,8H-pyrido[3,4-d]pyrimidin-2-yl)amino]pyridin-2-yl}propan-2-ol] | –
10 | < 100 nM | 500 to 1000 nM | Cc1cc(Nc2ncc3c(n2)CN(c2cnc4c(c2C)NCCO4)CC3)cnc1NCCN(C)C [Example 28, N2-[2-(dimethylamino)ethyl]-3-methyl-N5-(7-{8-methyl-1H,2H,3H-pyrido[2,3-b][1,4]oxazin-7-yl}-5H,6H,7H,8H-pyrido[3,4-d]pyrimidin-2-yl)pyridine-2,5-diamine] | –
11 | < 100 nM | 500 to 1000 nM | Cc1c(N2CCc3cnc(Nc4ccc(NCCN(C)C)nc4)cc3C2)cnc2c1NCCO2 [Example 26, N2-[2-(dimethylamino)ethyl]-N5-(6-{8-methyl-1H,2H,3H-pyrido[2,3-b][1,4]oxazin-7-yl}-5,6,7,8-tetrahydro-2,6-naphthyridin-3-yl)pyridine-2,5-diamine] | –
12 | < 100 nM | < 500 nM | Cc1cc(Nc2ncc3c(n2)CN(c2cnc4c(c2C)NCCO4)CC3)ccc1NC(=O)CN1CCCC1 [Example 10, N-{2-methyl-4-[(7-{8-methyl-1H,2H,3H-pyrido[2,3-b][1,4]oxazin-7-yl}-5H,6H,7H,8H-pyrido[3,4-d]pyrimidin-2-yl)amino]phenyl}-2-(pyrrolidin-1-yl)acetamide] | –

The next lines start with the compound.

Row | SMILES | IC50 [1] | IC50 [2, 3] | IC50 [2, 4]
13 | Cc1c(N2CCc3cnc(Nc4ccc(N5CCC(O)CC5)c(CC#N)c4)nc3C2)cnc2c1NCCO2 [Example 91, 2-(2-(4-hydroxypiperidin-1-yl)-5-((7-(8-methyl-2,3-dihydro-1H-pyrido[2,3-b][1,4]oxazin-7-yl)-5,6,7,8-tetrahydropyrido[3,4-d]pyrimidin-2-yl)amino)phenyl)acetonitrile] | < 100 nM | < 500 nM | –
14 | Cc1c(N2CCc3cnc(Nc4ccc(CC(=O)N5CC(OC(C)C)C5)cc4)nc3C2)cnc2c1NCCO2 [Example 174, 2-{4-[(7-{8-methyl-1H,2H,3H-pyrido[2,3-b][1,4]oxazin-7-yl}-5H,6H,7H,8H-pyrido[3,4-d]pyrimidin-2-yl)amino]phenyl}-1-[3-(propan-2-yloxy)azetidin-1-yl]ethan-1-one] | < 100 nM | < 500 nM | –
15 | COC1CCN(c2ccc(Nc3ncc4c(n3)CN(c3cnc5c(c3C)NCCO5)CC4)cc2)CC1 [Example 113, N-(4-(4-methoxypiperidin-1-yl)phenyl)-7-(8-methyl-2,3-dihydro-1H-pyrido[2,3-b][1,4]oxazin-7-yl)-5,6,7,8-tetrahydropyrido[3,4-d]pyrimidin-2-amine] | < 100 nM | 500 to 1000 nM | –
16 | Cc1c(N2CCc3cnc(Nc4ccc(N5CCN(C)CC5)cc4)nc3C2)cnc2c1NCCO2 [Example 55, 7-(8-methyl-2,3-dihydro-1H-pyrido[2,3-b][1,4]oxazin-7-yl)-N-(4-(4-methylpiperazin-1-yl)phenyl)-5,6,7,8-tetrahydropyrido[3,4-d]pyrimidin-2-amine] | < 100 nM | – | 500 to 1000 nM
17 | Cc1c(N2CCc3cnc(Nc4ccc5c(c4)C(C)(C)OC5)nc3C2)cnc2c1NCCO2 [Example 93, N-(3,3-dimethyl-1,3-dihydroisobenzofuran-5-yl)-7-(8-methyl-2,3-dihydro-1H-pyrido[2,3-b][1,4]oxazin-7-yl)-5,6,7,8-tetrahydropyrido[3,4-d]pyrimidin-2-amine] | < 100 nM | – | < 500 nM
18 | Cc1c(N2CCc3cnc(Nc4ccc(OCS(C)(=O)=O)cc4)nc3C2)cnc2c1NCCO2 [Example 25, N-[4-(methanesulfonylmethoxy)phenyl]-7-{8-methyl-1H,2H,3H-pyrido[2,3-b][1,4]oxazin-7-yl}-5H,6H,7H,8H-pyrido[3,4-d]pyrimidin-2-amine] | < 100 nM | < 500 nM | –
19 | Cc1c(N2CCc3cnc(Nc4cnc(CS(C)(=O)=O)c(Cl)c4)nc3C2)cnc2c1NCCO2 [Example 5, 5-chloro-6-(methanesulfonylmethyl)-N-(7-{8-methyl-1H,2H,3H-pyrido[2,3-b][1,4]oxazin-7-yl}-5H,6H,7H,8H-pyrido[3,4-d]pyrimidin-2-yl)pyridin-3-amine] | < 100 nM | > 1000 nM | –
20 | Cc1c(N2CCc3cnc(Nc4ccc5c(c4)CS(=O)(=O)C5)nc3C2)cnc2c1NCCO2 [Example 81, 5-((7-(8-methyl-2,3-dihydro-1H-pyrido[2,3-b][1,4]oxazin-7-yl)-5,6,7,8-tetrahydropyrido[3,4-d]pyrimidin-2-yl)amino)-1,3-dihydrobenzo[c]thiophene 2,2-dioxide] | < 100 nM | < 500 nM | –
21 | Cc1c(N2CCc3cnc(Nc4ccc(CN5CCOC5=O)cc4)nc3C2)cnc2c1NCCO2 [Example 188, 3-({4-[(7-{8-methyl-1H,2H,3H-pyrido[2,3-b][1,4]oxazin-7-yl}-5H,6H,7H,8H-pyrido[3,4-d]pyrimidin-2-yl)amino]phenyl}methyl)-1,3-oxazolidin-2-one] | < 100 nM | < 500 nM | –
22 | Cc1c(N2CCc3cnc(Nc4ccc5c(c4)CN(C)S(=O)(=O)C5)nc3C2)cnc2c1NCCO2 [Example 156, 3-methyl-6-[(7-{8-methyl-1H,2H,3H-pyrido[2,3-b][1,4]oxazin-7-yl}-5H,6H,7H,8H-pyrido[3,4-d]pyrimidin-2-yl)amino]-3,4-dihydro-1H-2?6,3-benzothiazine-2,2-dione] | < 100 nM | < 500 nM | –
23 | Cc1cc(Nc2ncc3c(n2)CN(c2cnc4c(c2C)NCCO4)CC3)cnc1NCCN1CCOCC1 [Example 36, 3-methyl-N5-(7-{8-methyl-1H,2H,3H-pyrido[2,3-b][1,4]oxazin-7-yl}-5H,6H,7H,8H-pyrido[3,4-d]pyrimidin-2-yl)-N2-[2-(morpholin-4-yl)ethyl]pyridine-2,5-diamine] | < 100 nM | 500 to 1000 nM | –
24 | Cc1c(N2CCc3cnc(Nc4ccc(CC#N)cc4)nc3C2)cnc2c1NCCO2 [Example 148, 2-{4-[(7-{8-methyl-1H,2H,3H-pyrido[2,3-b][1,4]oxazin-7-yl}-5H,6H,7H,8H-pyrido[3,4-d]pyrimidin-2-yl)amino]phenyl}acetonitrile; formic acid] | < 100 nM | < 500 nM | –
